Key:
Assay in all cases: NCI-60 one-dose assay
Assay type in all cases: cell-based
[1] = system: SK-MEL-5; conditions: Homo sapiens, SK-MEL-5 (Melanoma), read-out: Cell Inhibition Percent
Procedure: (§1) The final compounds were submitted to the National Cancer Institute, Bethesda, USA, for screening in vitro for anti-cancer. […] compounds, 4a–j, 5, and 6, were selected according to the Development Therapeutic Program (DTP) protocol. The selected compounds were evaluated for their in vitro cytotoxic activity against a panel of sixty cancer cell lines (NCI-60 cell line panel) derived from six cell lines panel of leukemia, nine cell lines of lung cancer, six cell lines of CNS cancer, seven cell lines of colon cancer, eight cell lines of melanoma, six cell lines of ovarian cancer, eight cell lines of renal cancer, two cell lines of prostate cancer, and eight cell lines of breast cancer, representing the full nine human systems as leukemia, melanoma, and cancers of the lung, colon, brain, breast, ovary, kidney, and prostate.
(§2) The selected compounds 4a–j, 5, and 6 were tested at a single concentration of 10 µM. The screening results for the selected compounds are illustrated in Table 1.
(§3) The NCI anti-cancer screening methodology has been described in detail elsewhere (http://www.dtp.nci.nih.gov, accessed on 20 February 2021). Following the Drug Evaluation Branch protocol, National Cancer Institute, Bethesda, USA, a primary anti-cancer assay was performed on approximately 60 human tumor cell line panels derived from nine neoplastic diseases.

[2] = system: BT-549; conditions: Homo sapiens, BT-549 (Breast Cancer), read-out: Cell Inhibition Percent
Procedure: as §1, §2, §3

[3] = system: K-562; conditions: Homo sapiens, K562, K-562 (Leukemia), read-out: Cell Inhibition Percent
Procedure: as §1, §2, §3

[4] = system: MDA-MB 231; conditions: Homo sapiens, MDA-MB 231 (Breast Cancer), read-out: Cell Inhibition Percent
Procedure: as §1, §2, §3

[5] = system: SK-MEL-28; conditions: Homo sapiens, SK-MEL-28 (Melanoma), read-out: Cell Inhibition Percent
Procedure: as §1, §2, §3

[6] = system: MOLT-4; conditions: Homo sapiens, MOLT-4 (Leukemia), read-out: Cell Inhibition Percent
Procedure: as §1, §2, §3

[7] = system: NCI-H522; conditions: Homo sapiens, NCI-H522 (Non-Small Cell Lung Cancer), read-out: Cell Inhibition Percent
Procedure: as §1, §2, §3

[8] = system: U251; conditions: Homo sapiens, U-251, U251 (CNS cancer), read-out: Cell Inhibition Percent
Procedure: as §1, §2, §3

[9] = system: OVCAR-5; conditions: Homo sapiens, OVCAR-5 (ovarian cancer), read-out: Cell Inhibition Percent
Procedure: as §1, §2, §3

[10] = system: SW-620; conditions: Homo sapiens, SW-620 (Colon Cancer), read-out: Cell Inhibition Percent
Procedure: as §1, §2, §3

[11] = system: UACC-62; conditions: Homo sapiens, UACC-62 (Melanoma), read-out: Cell Inhibition Percent
Procedure: as §1, §2, §3

[12] = system: NCI-H23; conditions: Homo sapiens, NCI-H23 (Non-Small Cell Lung Cancer), read-out: Cell Inhibition Percent
Procedure: as §1, §2, §3

[13] = system: MCF7; conditions: Homo sapiens, MCF7 (Breast Cancer), read-out: Cell Inhibition Percent
Procedure: as §1, §2, §3

[14] = system: SF-539; conditions: Homo sapiens, SF-539 (CNS cancer), read-out: Cell Inhibition Percent
Procedure: as §1, §2, §3

[15] = system: PC-3; conditions: Homo sapiens, PC-3 (Prostate Cancer), read-out: Cell Inhibition Percent
Procedure: as §1, §2, §3

[16] = system: COLO 205; conditions: Homo sapiens, COLO 205 (Colon Cancer), read-out: Cell Inhibition Percent
Procedure: as §1, §2, §3

[17] = system: DU-145; conditions: Homo sapiens, DU-145 (Prostate Cancer), read-out: Cell Inhibition Percent
Procedure: as §1, §2, §3

[18] = system: CAKI-1; conditions: Homo sapiens, CAKI-1 (Renal Cancer), read-out: Cell Inhibition Percent
Procedure: as §1, §2, §3

[19] = system: SF-295; conditions: Homo sapiens, SF-295 (CNS cancer), read-out: Cell Inhibition Percent
Procedure: as §1, §2, §3

[20] = system: 786-0; conditions: Homo sapiens, 786-0 (Renal Cancer), read-out: Cell Inhibition Percent
Procedure: as §1, §2, §3

[21] = system: SN12C; conditions: Homo sapiens, SN12C (Renal Cancer), read-out: Cell Inhibition Percent
Procedure: as §1, §2, §3

[22] = system: KM12; conditions: Homo sapiens, KM12 (Colon Cancer), read-out: Cell Inhibition Percent
Procedure: as §1, §2, §3

[23] = system: RXF 393; conditions: Homo sapiens, RXF 393 (Renal Cancer), read-out: Cell Inhibition Percent
Procedure: as §1, §2, §3

[24] = system: SF-268; conditions: Homo sapiens, SF-268 (CNS cancer), read-out: Cell Inhibition Percent
Procedure: as §1, §2, §3

[25] = system: HL-60(TB); conditions: Homo sapiens, HL-60(TB) (Leukemia), read-out: Cell Inhibition Percent
Procedure: as §1, §2, §3

[26] = system: A549/ATCC; conditions: Homo sapiens, A549/ATCC (Non-Small Cell Lung Cancer), read-out: Cell Inhibition Percent
Procedure: as §1, §2, §3

[27] = system: HCT-15; conditions: Homo sapiens, HCT-15 (Colon Cancer), read-out: Cell Inhibition Percent
Procedure: as §1, §2, §3

[28] = system: NCI-H322M; conditions: Homo sapiens, NCI-H322M (Non-Small Cell Lung Cancer), read-out: Cell Inhibition Percent
Procedure: as §1, §2, §3

[29] = system: HOP-92; conditions: Homo sapiens, HOP-92 (Non-Small Cell Lung Cancer), read-out: Cell Inhibition Percent
Procedure: as §1, §2, §3

[30] = system: NCI-H460; conditions: Homo sapiens, NCI-H460 (Non-Small Cell Lung Cancer), read-out: Cell Inhibition Percent
Procedure: as §1, §2, §3

[31] = system: M14; conditions: Homo sapiens, M14 (Melanoma), read-out: Cell Inhibition Percent
Procedure: as §1, §2, §3

Row | Structure (SMILES) | inhibition at 10 µM [1] [%] | inhibition at 10 µM [2] [%] | inhibition at 10 µM [3] [%] | inhibition at 10 µM [4] [%] | inhibition at 10 µM [5] [%] | inhibition at 10 µM [6] [%] | inhibition at 10 µM [7] [%] | inhibition at 10 µM [8] [%] | inhibition at 10 µM [9] [%] | inhibition at 10 µM [10] [%] | inhibition at 10 µM [11] [%] | inhibition at 10 µM [12] [%] | inhibition at 10 µM [13] [%] | inhibition at 10 µM [14] [%] | inhibition at 10 µM [15] [%] | inhibition at 10 µM [16] [%] | inhibition at 10 µM [17] [%] | inhibition at 10 µM [18] [%] | inhibition at 10 µM [20] [%] | inhibition at 10 µM [21] [%] | further results
1 | O=C(NN=Cc1ccccc1)c1ccc2[nH]c(-c3ccc(Cl)cc3)nc2c1 [Compound 4a, N′-Benzylidene-2-(4-chlorophenyl)-1H-benzimidazole-5-carbohydrazide] | 4.85 | 4.12 | 7.37 | 0 | 0 | 12.9 | 1 | 4.35 | 0 | 0 | 0 | 1.85 | 23.5 | 9.57 | 0 | 0.76 | 3.83 | 1.57 | 11.6 | 3.99 | inhibition at 10 µM [19]: 13.2%; inhibition at 10 µM [22]: 3.8%; inhibition at 10 µM [23]: 15.5%; inhibition at 10 µM [24]: 0%; inhibition at 10 µM [25]: 0%; inhibition at 10 µM [26]: 0%; inhibition at 10 µM [27]: 4.81%; inhibition at 10 µM [28]: 0%; inhibition at 10 µM [29]: 0%; inhibition at 10 µM [30]: 0%; inhibition at 10 µM [31]: 8.89%
2 | CN(C)c1ccc(C=NNC(=O)c2ccc3[nH]c(-c4ccc(Cl)cc4)nc3c2)cc1 [Compound 4b, N′-(4-(Dimethylamino)benzylidene)-2-(4-chlorophenyl)-1H-benzimidazole-5-carbohydrazide] | 5.02 | 0 | 5.96 | 15.6 | 0 | 3.18 | 3.02 | 0 | 0 | 0 | 1.06 | 1.51 | 23.8 | 5.22 | 4.81 | 0 | 0 | 4.4 | 0 | 1.47 | inhibition at 10 µM [19]: 1.06%; inhibition at 10 µM [22]: 2.41%; inhibition at 10 µM [23]: 7.79%; inhibition at 10 µM [24]: 0.73%; inhibition at 10 µM [25]: 0%; inhibition at 10 µM [26]: 0%; inhibition at 10 µM [27]: 0%; inhibition at 10 µM [28]: 0.24%; inhibition at 10 µM [29]: 0%; inhibition at 10 µM [30]: 2.77%; inhibition at 10 µM [31]: 3.58%
3 | O=C(NN=Cc1ccc([N+](=O)[O-])cc1)c1ccc2[nH]c(-c3ccc(Cl)cc3)nc2c1 [Compound 4c, N′-(4-Nitrobenzylidene)-2-(4-chlorophenyl)-1H-benzimidazole-5-carbohydrazide] | 97.4 | 86 | 90.3 | 23.1 | 54.6 | 95.8 | 67 | 77.7 | 46.8 | 87.3 | 56.4 | 83.8 | 99.3 | 58.3 | 78.6 | 97.7 | 58 | 57.2 | 51 | 80.3 | inhibition at 10 µM [19]: 78.3%; inhibition at 10 µM [22]: 87%; inhibition at 10 µM [23]: 68.4%; inhibition at 10 µM [24]: 51.5%; inhibition at 10 µM [25]: 93.4%; inhibition at 10 µM [26]: 65.5%; inhibition at 10 µM [27]: 70.1%; inhibition at 10 µM [28]: 29.9%; inhibition at 10 µM [29]: 40.3%; inhibition at 10 µM [30]: 94.6%; inhibition at 10 µM [31]: 74.1%
4 | O=C(NN=Cc1ccc(F)cc1)c1ccc2[nH]c(-c3ccc(Cl)cc3)nc2c1 [Compound 4d, N′-(4-Fluorobenzylidene)-2-(4-chlorophenyl)-1H-benzimidazole-5-carbohydrazide] | 11 | 0 | 61.2 | 36.1 | 28.1 | 76.5 | 3.87 | 98.4 | 10.8 | 53.7 | 11.8 | 38.6 | 82.6 | 12 | 53.2 | 58.7 | 14.6 | 15.1 | 87.8 | 58.8 | inhibition at 10 µM [19]: 68.7%; inhibition at 10 µM [22]: 35.1%; inhibition at 10 µM [23]: 22.6%; inhibition at 10 µM [24]: 21.8%; inhibition at 10 µM [25]: 62.6%; inhibition at 10 µM [26]: 82.2%; inhibition at 10 µM [27]: 33.2%; inhibition at 10 µM [28]: 22.4%; inhibition at 10 µM [29]: 15.4%; inhibition at 10 µM [30]: 63.8%; inhibition at 10 µM [31]: 39.8%
5 | CCNC(=S)NNC(=O)c1ccc2[nH]c(-c3ccc(Cl)cc3)nc2c1 [Compound 5] | 9.57 | 0 | 88.4 | 20.5 | 0 | 90 | 5.4 | 2.36 | 3.26 | 0 | 1.88 | 5.79 | 22.1 | 12.2 | 7.83 | 0 | 0 | 17.1 | 0 | 10.1 | inhibition at 10 µM [22]: 7.97%; inhibition at 10 µM [23]: 7.61%; inhibition at 10 µM [24]: 1.33%; inhibition at 10 µM [25]: 0%; inhibition at 10 µM [26]: 6.17%; inhibition at 10 µM [27]: 5.9%; inhibition at 10 µM [28]: 3.36%; inhibition at 10 µM [29]: 1.09%; inhibition at 10 µM [30]: 1.06%; inhibition at 10 µM [31]: 1.67%

— PMC10819888, “Benzimidazole-Based Derivatives as Apoptotic Antiproliferative Agents: Design, Synthesis, Docking, and Mechanistic Studies” (Molecules, 2024)
